Key:
microglial cells [1] = test: Viability of microglial cells in MMP-9 experiments (crystal violet); assay type: cell-based, rat; conditions: 24 h
Method: [formula] In MMP-9 experiments and in the cellular antioxidant activity (CAA) assays, cell viability was determined by a modification of the crystal violet assay. Microglial cells were treated with the indicated concentrations of achillolide A, followed by stimulation with LPS (4.5 ng/mL). Conditioned media were collected 24 h later and tested for MMP-9 activity by gel zymography as shown in FIG. 23 A. The zymogram represents two independent experiments. The levels of MMP-9 transcripts were measured by quantitative real-time PCR. The results from three technical replicates were normalized to β-actin and are expressed as relative quantity of MMP-9 transcripts in FIG. 23 B. The results are means±SD of one representative experiment out of three experiments. Cell viability was determined 24 h later by the crystal violet assay. Values represent the means±SEM (n=4 for each treatment).

microglial cells [2] = test: Cellular antioxidant activity (ABAP peroxyl radicals) in microglial cells; assay type: cell-based, rat; conditions: ABAP 0.6 mM, dexamethasone at nanomolar concentrations
Method: Intracellular ROS production was detected using the non-fluorescent cell permeating compound, 2′7′-dichlorofluorescein diacetate (DCF-DA). DCF-DA is hydrolyzed by intracellular esterases and then oxidized by ROS to a fluorescent compound 2′-7′-DCF. Peroxyl radicals are generated by thermolysis of 2,2′-Azobis(amidinopropane) (ABAP) at physiological temperature. ABAP decomposes at approximately 1.36×10^−6s^−1 at 37° C., producing at most 1×10^12 radicals/mL/s. Microglial cells (130,000 cells/well) were plated in DMEM containing 2% FBS, 8.4 mM HEPES, 2 mM glutamine, 100 U/mL penicillin and 100 μg/mL streptomycin, onto 24 wells plates. In order to measure the ability of achillolide A to enter the cells and prevent the formation of DCF by ABAP-generated peroxyl radicals, cells were incubated for 1 h with achillolide A. Then cells were preloaded with DCF-DA for 30 min, washed twice with PBS, and ABAP (0.6 mM final concentration) was then added. The fluorescence, which indicates ROS levels, was measured in a plate reader with excitation at 485 nm and emission at 520 nm.
Cells were incubated for 1 h with different concentrations of achillolide A. Then, the cells were pre-loaded with DCF-DA for 30 min and washed. ABAP (0.6 mM) was added to the culture and ROS levels were measured at the indicated time points. […]

GDNF = GDNF transcript levels in primary astrocytes (real-time PCR); assay type: cell-based, rat; conditions: 24 h treatment
Source text: 1. Produce a primary culture of rat brain glial cells according to the method described in “Protective effects of the essential oil of salvia fruticosa and its constituents on astrocytic susceptibility to hydrogen peroxide-induced cell death”. 2009. A. Elmann, S. Mordechay, M. Rindner, O. Larkov, M. Elkabetz, U. Ravid. Journal of agricultural and food chemistry. 57(15):6636-41; 2. Separate astrocytes from other cell types in the culture according to the method described in “Protective effects of the essential oil of salvia fruticosa and its constituents on astrocytic susceptibility to hydrogen peroxide-induced cell death”. 2009. A. Elmann, S. Mordechay, M. Rindner, O. Larkov, M. Elkabetz, U. Ravid. Journal of agricultural and food chemistry. 57(15):6636-41; 3. Plate astrocytes in 6-wells PDL-coated plastic plates at a density of 2×10^6 cells/well, in DMEM/F12 containing 5% FBS, 2 millimolar glutamine, 100 U/ml penicillin, and 100 micrograms/ml streptomycin. 4. Incubate the culture for 24 hr (37° C., 5% CO2); 5. Aspirate medium and add fresh medium to the cells. 6. […]
Astrocytes were treated with achillolide A for 24 h. […] GDNF transcripts were measured using quantitative real time PCR. The results of three technical replicates were normalized to […] and are expressed as relative quantities of GDNF transcripts. […]

astrocytes = test: Cytotoxicity of the compound by itself to astrocytes (LDH); assay type: cell-based; conditions: all concentrations tested, 20 h
Method: Astrocytes were re-plated at 24-well poly-D-lysine-coated plastic plates at a density of 1×10^5/well, in DMEM w/o Phenol Red containing 2% FBS, 2 mM glutamine, 100 U/mL penicillin, and 100 μg/mL streptomycin. H2O2 in the presence or absence of TTF were added, and cell viability was determined using a commercial colorimetric assay (Roche Applied Science, Germany) according to the manufacturer's instructions. This assay is based on the measurement of lactate dehydrogenase (LDH) activity released from the cytosol of damaged cells into the incubation medium. The absorbance was measured at 492 nm in a plate reader. The percentage of cytotoxicity was calculated according to the following equation, where the “ATriton-x treated cells” is the maximum releasable LDH in the cells:
Astrocytes were treated with different concentrations of TTF and cell death was determined 20 h later by the LDH method. The results are means±SEM of two experiments (n=10) and are shown in FIG. 2C. ***P<0.001, compared to untreated cells.

IL-6 = IL-6 secretion from LPS-stimulated microglial cells (ELISA); assay type: cell-based, rat; conditions: LPS 100 ng/mL, 24 h
Method: 2. Plate microglial cells (3.5×10^4 cells/well) on a 24-well tissue culture plate, in DMEM containing 10% FBS, 2 mM glutamine, 100 U/ml penicillin and 100 micrograms/mL streptomycin;
Microglial cells were treated with different concentrations of TTF, followed by stimulation with LPS (100 ng/mL). After 24 h, conditioned media were collected and tested for cytokine levels by ELISA. Cell viability was determined using the crystal violet assay (FIG. 9C). Values represent the means±SEM (n=4 for each treatment).

MEK1 = test: SNP-induced MEK1 phosphorylation in N2a cells (ELISA); assay type: cell-based; conditions: concomitant treatment 40 min, total protein not affected
Method: N2a cells were treated concomitantly with SNP and TTF for 40 min. Cells were extracted and the levels of phosphorylated or total MEK1 were determined by specific ELISA kits. The results are shown in FIG. 20 are the mean±SEM of two different experiments […].

Row | SMILES | toxicity in MMP-9 experiments (microglial cells [1]) | inhibition of the ABAP-induced increase in ROS fluorescence (microglial cells [2]) | effect on GDNF transcript levels (GDNF) | cytotoxicity of the flavonoid by itself to astrocytes (astrocytes) | effect on LPS-elicited IL-6 secretion (IL-6) | effect on SNP-induced phosphorylation of MEK1 (MEK1)
1 | C=C1CCC2=C(CO)C(=O)O[C@H]2/C=C(\C)[C@H](OC(C)=O)CC1=O [achillolide A] | no toxicity was observed | 54% | increases |  |  | 
2 | COc1cc(-c2oc3cc(OC)c(OC)c(O)c3c(=O)c2O)ccc1O [TTF, 3,5,4′-trihydroxy-6,7,3′-trimethoxyflavone] |  |  |  | < 11% | markedly inhibited | significantly inhibited

From patent US11752125B2, “Anti-neuroinflammatory and protective compounds in Achillea fragrantissima” (THE STATE OF ISRAEL MINISTRY OF AGRICULTURE & RURAL …, priority 2013, dated 2023)
